Experimental data published in patent publication US10098878B2, “HIF-2α inhibitors for treating iron overload disorders” (The Board of Regents of the University of Texas System, priority 2014, dated 2018).
pEC50, pIC50: −log10 of the molar value.

Test system: 786-O-Hif-Luc cells
Experiment: Luciferase Assay
Assay type: cell-based
Conditions: 786-O-Hif-Luc cells; about 24 hours; read-out: Luciferase EC50
Experimental: A pool of infected cells were then selected against 2 μg/mL of puromycin (P8833, Sigma) for 10 days followed by limited dilution to select single clones.
Each concentration was tested in triplicate. After about 24 hours, luciferase activity was determined using ONE-Glo Luciferase Assay Reagent (E6110, Promega) following the manufacturer's recommended procedure. EC50 were calculated by using Dotmatics software.

SMILES	pEC50
N#Cc1cc(F)cc(Oc2ccc3c(c2C(F)F)[C@@H](O)C(F)(F)S3(=O)=O)c1 (single isomer, unassigned) [Compound 113]	8.15

Same assay, conditions: 24 h, 786-O-Hif-Luc cells; about 24 hours; read-out: Luciferase EC50

pEC50	SMILES
8.15	N#Cc1cc(F)cc(Oc2ccc(S(=O)(=O)C(F)F)c3c2CC(F)(F)[C@H]3O)c1 [Compound 1, 3-[(1S)-7-(difluoromethylsulfonyl)-2,2-difluoro-1-hydroxy-indan-4-yl]oxy-5-fluoro-benzonitrile]
6.75	Cn1cc(Oc2ccc(S(=O)(=O)C(F)(F)F)c3c2CC(F)(F)[C@H]3O)cn1 [Compound 13, (S)-2,2-Difluoro-4-((1-methyl-1H-pyrazol-4-yl)oxy)-7-((trifluoromethyl)sulfonyl)-2,3-dihydro-1H-inden-1-ol]
8.52	N#Cc1cc(F)cc(Oc2ccc(S(=O)(=O)C(F)(F)F)c3c2C[C@@H](F)[C@H]3O)c1 [Compound 15, 3-Fluoro-5-(((1S,2R)-2-fluoro-1-hydroxy-7-((trifluoromethyl)sulfonyl)-2,3-dihydro-1H-inden-4-yl)oxy)benzonitrile]
6.86	O=S(=O)(c1ccc(Oc2ccc(F)c3[nH]ncc23)c2c1C(O)C(F)(F)C2)C(F)(F)F (centres unmarked) [Compound 21, 2,2-Difluoro-4-((7-fluoro-1H-indazol-4-yl)oxy)-7-((trifluoromethyl)sulfonyl)-2,3-dihydro-1H-inden-1-ol]
5.86	O=[N+]([O-])c1ccc(Oc2cc(F)cc(Cl)c2)c2c1C(O)CC2 (centres unmarked) [Compound 27, 4-(3-Chloro-5-fluorophenoxy)-7-nitro-2,3-dihydro-1H-inden-1-ol]
6.19	CS(=O)(=O)c1ccc(Oc2cc(F)cc(C#N)c2)c2c1[C@H](O)CC2 [Compound 51, 3-fluoro-5-[(1R)-1-hydroxy-7-methylsulfonyl-indan-4-yl]oxy-benzonitrile]
8.40	CS(=O)(=O)c1ccc(Oc2cc(F)cc(C#N)c2)c2c1[C@H](O)[C@H](F)[C@@H]2F [Compound 53, 3-[(1S,2S,3R)-2,3-difluoro-1-hydroxy-7-methylsulfonyl-indan-4-yl]oxy-5-fluoro-benzonitrile]
5.99	CS(=O)(=O)c1ccc(Oc2cc(F)cc(C#N)c2)c2c1[C@H](O)[C@H](F)[C@H]2F [Compound 58, 3-[(1S,2S,3S)-2,3-difluoro-1-hydroxy-7-methylsulfonyl-indan-4-yl]oxy-5-fluoro-benzonitrile]

Same assay, conditions: 24 h, read-out: Luciferase EC50

pEC50	SMILES
7.62	CS(=O)(=O)c1ccc(Oc2cc(F)cc(C#N)c2)c2c1[C@H](O)C(F)(F)C2 [Compound 5, (S)-3-((2,2-Difluoro-1-hydroxy-7-(methylsulfonyl)-2,3-dihydro-1H-inden-4-yl)oxy)-5-fluorobenzonitrile]
6.61	CS(=O)(=O)c1ccc(Oc2cc(F)cc(C#N)c2)c2c1[C@H](N)C(F)(F)C2 [Compound 6, 3-[(1S)-1-Amino-2,2-difluoro-7-methylsulfonyl-indan-4-yl]oxy-5-fluoro-benzonitrile]
7.62	[2H]C([2H])([2H])S(=O)(=O)c1ccc(Oc2cc(F)cc(C#N)c2)c2c1[C@]([2H])(O)C(F)(F)C2 [Compound 16, 3-[(1S)-1-Deuterio-2,2-difluoro-1-hydroxy-7-(trideuteriomethylsulfonyl)indan-4-yl]oxy-5-fluoro-benzonitrile]
7.44	CS(=O)(=O)c1ccc(Oc2cc(F)cc(C#N)c2)c2c1[C@H](O)[C@H](F)C2 [Compound 17, 3-Fluoro-5-(((1S,2R)-2-fluoro-1-hydroxy-7-(methylsulfonyl)-2,3-dihydro-1H-inden-4-yl)oxy)benzonitrile]
7.82	N#Cc1cncc(Oc2ccc(S(=O)(=O)C(F)(F)F)c3c2CC(F)(F)[C@H]3O)c1 [Compound 18, (S)-5-((2,2-Difluoro-1-hydroxy-7-((trifluoromethyl)sulfonyl)-2,3-dihydro-1H-inden-4-yl)oxy)nicotinonitrile]
7.62	[2H][C@]1(O)c2c(S(C)(=O)=O)ccc(Oc3cc(F)cc(C#N)c3)c2CC1(F)F [Compound 23, (S)-3-((2,2-Difluoro-1-hydroxy-7-(methylsulfonyl)-2,3-dihydro-1H-inden-4-yl-1-d)oxy)-5-fluorobenzonitrile]
6.77	N#Cc1cc(F)cc(Oc2ccc(S(=O)(=O)C(F)(F)F)c3c2CC(F)(F)[C@H]3N)c1 [Compound 54, 3-[(1S)-1-amino-2,2-difluoro-7-(trifluoromethylsulfonyl)indan-4-yl]oxy-5-fluoro-benzonitrile]

SMILES	pEC50
CNS(=O)(=O)c1ccc(Oc2cc(F)cc(C#N)c2)c2c1[C@H](O)C(F)(F)C2 [Compound 26, (S)-7-(3-Cyano-5-fluorophenoxy)-2,2-difluoro-3-hydroxy-N-methyl-2,3-dihydro-1H-indene-4-sulfonamide]	6.92
CS(=O)(=O)c1ccc(Oc2cc(F)cc(C#N)c2)c2c1[C@H](O)[C@@H](F)C2 [Compound 35, 3-fluoro-5-(((1S,2S)-2-fluoro-1-hydroxy-7-(methylsulfonyl)-2,3-dihydro-1H-inden-4-yl)oxy)benzonitrile]	6.33

Same assay, conditions: read-out: Luciferase EC50

pEC50	SMILES
7.72	N#Cc1cc(F)cc(Oc2ccc3c(c2C(F)F)[C@H](O)C(F)(F)S3(=O)=O)c1 (single isomer, unassigned) [Compound 144]

Biological target: T1, HIF-2α HIS TAG-PASB Domain (Homo sapiens, UniProt Q99814)
T1 construct: 100 nM HIF-2α HIS TAG-PASB Domain
Experiment: HIF-2α Scintillation Proximity Assay (SPA)
Assay type: binding
Conditions: 150 nM Compound 211 probe, 100 nM HIF-2α HIS TAG-PASB Domain; read-out: SPA IC50
Experimental: The total assay volume was about 100 μL in the following configuration: 2 μL compound in 100% DMSO, 88 μL buffer with protein and probe and 10 μL of SPA beads. […] The percent inhibition was determined and IC50 values were calculated using the Dotmatics system based on the following equation: % inhibition=[(high control−sample)/(high control−low control)]×100.

T1 sequence (Q99814 240-350 limits assumed): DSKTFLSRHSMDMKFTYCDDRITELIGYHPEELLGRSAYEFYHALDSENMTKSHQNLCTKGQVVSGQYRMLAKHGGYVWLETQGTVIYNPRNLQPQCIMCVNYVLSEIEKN

SMILES	pIC50
O=C1c2c(ccc(Oc3cc(F)cc(Cl)c3)c2Br)S(=O)(=O)C12CC2 [Compound 168, 4-Bromo-5-(3-chloro-5-fluoro-phenoxy)-1,1-dioxo-spiro[benzothiophene-2,1′-cyclopropane]-3-one]	5.20
N#Cc1c(Oc2cc(F)cc(Cl)c2)ccc2c1[C@H](O)CS2(=O)=O [Compound 171, (3S)-5-(3-Chloro-5-fluoro-phenoxy)-3-hydroxy-1,1-dioxo-2,3-dihydrobenzothiophene-4-carbonitrile]	4.89
CC1(C)C(O)c2c(ccc(Oc3cc(F)cc(Cl)c3)c2C#N)S1(=O)=O (centres unmarked) [Compound 172, 5-(3-Chloro-5-fluoro-phenoxy)-3-hydroxy-2,2-dimethyl-1,1-dioxo-3H-benzothiophene-4-carbonitrile]	4.71

Further lines, results first:

pIC50	SMILES
4.96	N#Cc1cc(F)cc(Oc2ccc3c(c2C#CCF)C(O)C(F)(F)S3(=O)=O)c1 (centres unmarked) [Compound 174, 3-[[2,2-Difluoro-4-(3-fluoroprop-1-ynyl)-3-hydroxy-1,1-dioxo-3H-benzothiophen-5-yl]oxy]-5-fluoro-benzonitrile]
5.33	O=S1(=O)C[C@H](O)c2c1ccc(Oc1cc(F)cc(F)c1)c2Br [Compound 177, (R)-4-bromo-5-(3,5-difluorophenoxy)-3-hydroxy-2,3-dihydrobenzo[b]thiophene 1,1-dioxide]
4.87	N#Cc1cc(F)cc(Oc2ccc3c(c2Br)[C@@H](O)CS3(=O)=O)c1 [Compound 179, (R)-3-((4-Bromo-3-hydroxy-1,1-dioxido-2,3-dihydrobenzo[b]thiophen-5-yl)oxy)-5-fluorobenzonitrile]
4.75	O=C1CS(=O)(=O)c2ccc(Oc3cc(F)cc(F)c3)cc21 [Compound 181, 5-(3,5-Difluorophenoxy)benzo[b]thiophen-3(2H)-one 1,1-dioxide]
4.77	O=S1(=O)CC(O)c2c1ccc(Oc1cc(F)cc(F)c1)c2Br (centres unmarked) [Compound 182, 4-Bromo-5-(3,5-difluorophenoxy)-3-hydroxy-2,3-dihydrobenzo[b]thiophene 1,1-dioxide]
4.86	O=S1(=O)C[C@H](O)c2c1ccc(Oc1cccc(F)c1)c2Br [Compound 183, (R)-4-bromo-5-(3-fluorophenoxy)-3-hydroxy-2,3-dihydrobenzo[b]thiophene 1,1-dioxide]
4.99	N#Cc1cncc(Oc2ccc3c(c2Br)[C@@H](O)CS3(=O)=O)c1 [Compound 184, (R)-5-((4-bromo-3-hydroxy-1,1-dioxido-2,3-dihydrobenzo[b]thiophen-5-yl)oxy)nicotinonitrile]
5.16	CC1(O)c2cc(Oc3cc(F)cc(F)c3)ccc2S(=O)(=O)C1(F)F (centres unmarked) [Compound 189, 5-(3,5-Difluorophenoxy)-2,2-difluoro-3-hydroxy-3-methyl-2,3-dihydrobenzo[b]thiophene 1,1-dioxide]
4.84	COc1cncc(Oc2ccc3c(c2Br)[C@@H](O)C(F)(F)S3(=O)=O)c1 [Compound 193, (R)-4-bromo-2,2-difluoro-3-hydroxy-5-((5-methoxypyridin-3-yl)oxy)-2,3-dihydrobenzo[b]thiophene 1,1-dioxide]
4.81	CCOc1ccc2c(c1C(F)F)[C@@H](O)C(F)(F)S2(=O)=O [Compound 202, (R)-4-(Difluoromethyl)-5-ethoxy-2,2-difluoro-3-hydroxy-2,3-dihydrobenzo[b]thiophene 1,1-dioxide]
5.36	N#Cc1cc(F)cc(Oc2ccc3c(c2C(F)F)C(O)(C(F)(F)F)C(F)(F)S3(=O)=O)c1 (centres unmarked) [Compound 209, 3-((4-(difluoromethyl)-2,2-difluoro-3-hydroxy-1,1-dioxido-3-(trifluoromethyl)-2,3-dihydrobenzo[b]thiophen-5-yl)oxy)-5-fluorobenzonitrile]

Same assay, conditions: SPA IC50, 150 nM Compound 211 probe, 100 nM HIF-2α HIS TAG-PASB Domain

pIC50	SMILES
5.39	O=S1(=O)CCC(O)c2c1ccc(Oc1cc(F)cc(F)c1)c2C(F)F (centres unmarked) [Compound 166, 5-(Difluoromethyl)-6-(3,5-difluorophenoxy)-4-hydroxythiochromane 1,1-dioxide]
4.66	CC1(C)C(O)c2c(ccc(Oc3cc(F)cc(Cl)c3)c2Br)S1(=O)=O (centres unmarked) [Compound 170, 4-Bromo-5-(3-chloro-5-fluoro-phenoxy)-2,2-dimethyl-1,1-dioxo-3H-benzothiophen-3-ol]
